What was measured:
[1] = biological target: Cytochrome P450 2D6 (Homo sapiens, UniProt P10635); details: bti-tn-5b1-4; further: in other assays of this panel Not Active means under 50% inhibition at 10 µM
[2] = biological target: 5-hydroxytryptamine receptor 2B (Homo sapiens, UniProt P41595); assay type: cell membranes, CHO-K1, Membrane; details: cho-k1; further: in other assays of this panel Not Active means under 50% inhibition at 10 µM
[3] = biological target: Matrix metalloproteinase-9 (Homo sapiens, UniProt P14780); assay: biochemical; assay type: cell-based;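 further: inhibition of isolated MMP-9 enzyme activity toward a synthetic peptide substrate, from the DrugMatrix protease screening panel; in other assays of this panel Not Active means under 50% inhibition at 10 µM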
[4] = biological target: Cannabinoid receptor 1 (Homo sapiens, UniProt P21554); assay type: cell membranes, Chem-1, Membrane; details: chem-1; further: in other assays of this panel Not Active means under 50% inhibition at 10 µM
[5] = biological target: T1, Alpha-2A adrenergic receptor (Homo sapiens, UniProt P08913); assay type: cell membranes, Sf9, Membrane; details: sf9; further: in other assays of this panel Not Active means under 50% inhibition at 10 µM
T1 sequence (P08913 whole entry): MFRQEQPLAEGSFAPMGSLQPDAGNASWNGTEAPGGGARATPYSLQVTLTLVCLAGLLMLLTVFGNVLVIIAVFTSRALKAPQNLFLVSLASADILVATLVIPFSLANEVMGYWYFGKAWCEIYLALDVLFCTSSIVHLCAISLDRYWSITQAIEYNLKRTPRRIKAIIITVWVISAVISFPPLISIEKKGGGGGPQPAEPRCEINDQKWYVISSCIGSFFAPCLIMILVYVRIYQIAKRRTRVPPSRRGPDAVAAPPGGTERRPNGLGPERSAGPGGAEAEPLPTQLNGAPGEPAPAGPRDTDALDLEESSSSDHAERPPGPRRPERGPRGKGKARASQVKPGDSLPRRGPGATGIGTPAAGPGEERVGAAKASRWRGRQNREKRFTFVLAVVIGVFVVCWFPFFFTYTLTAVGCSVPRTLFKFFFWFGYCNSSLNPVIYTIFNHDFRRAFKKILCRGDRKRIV

[6] = DRUGMATRIX: Atrial Natriuretic Factor (ANF) radioligand binding (ligand: [125I] ANF (rat)); assay type: cell membranes, Cavia porcellus, Dunkin-Hartley, Adrenal gland, Membrane; details: Not Active = under 50% inhibition at 10 µM
[7] = biological target: D(1A) dopamine receptor (Homo sapiens, UniProt P21728); assay: DRUGMATRIX: Dopamine D1 radioligand binding (ligand: [3H] SCH-23390); assay type: cell membranes, Membrane; details: cho; Not Active = under 50% inhibition at 10 µM
[8] = biological target: T2, Alpha-1D adrenergic receptor (Homo sapiens, UniProt P25100); assay type: cell membranes, HEK293, Membrane; details: hek293; further: in other assays of this panel Not Active means under 50% inhibition at 10 µM
T2 sequence (P25100 whole entry): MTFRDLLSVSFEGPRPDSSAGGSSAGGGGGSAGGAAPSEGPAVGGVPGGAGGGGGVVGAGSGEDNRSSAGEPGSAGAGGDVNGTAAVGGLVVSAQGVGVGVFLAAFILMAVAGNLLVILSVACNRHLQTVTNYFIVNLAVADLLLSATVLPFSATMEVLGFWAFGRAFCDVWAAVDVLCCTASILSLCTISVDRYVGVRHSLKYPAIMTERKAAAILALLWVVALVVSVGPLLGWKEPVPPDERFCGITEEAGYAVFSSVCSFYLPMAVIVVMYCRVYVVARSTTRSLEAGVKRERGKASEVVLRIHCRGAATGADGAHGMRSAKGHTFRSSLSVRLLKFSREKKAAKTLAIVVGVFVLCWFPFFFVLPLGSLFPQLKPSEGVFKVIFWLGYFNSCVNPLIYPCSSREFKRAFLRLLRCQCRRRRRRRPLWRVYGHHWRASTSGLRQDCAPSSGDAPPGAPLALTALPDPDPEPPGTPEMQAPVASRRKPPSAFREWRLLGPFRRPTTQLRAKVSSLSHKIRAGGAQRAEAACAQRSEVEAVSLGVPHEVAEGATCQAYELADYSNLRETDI

[9] = biological target: Receptor tyrosine-protein kinase erbB-2 (Homo sapiens, UniProt P04626); assay: biochemical; assay type: cell-based, Insect cells; details: insect cells
[10] = biological target: Tyrosine-protein kinase Fyn (Homo sapiens, UniProt P06241); assay: biochemical; assay type: cell-based, Insect cells; details: insect cells
[11] = biological target: Vasopressin V1a receptor (Homo sapiens, UniProt P37288); assay type: cell membranes, Membrane; details: hek293; further: in other assays of this panel Not Active means under 50% inhibition at 10 µM
Chain of Vasopressin V1a receptor (P37288 whole entry): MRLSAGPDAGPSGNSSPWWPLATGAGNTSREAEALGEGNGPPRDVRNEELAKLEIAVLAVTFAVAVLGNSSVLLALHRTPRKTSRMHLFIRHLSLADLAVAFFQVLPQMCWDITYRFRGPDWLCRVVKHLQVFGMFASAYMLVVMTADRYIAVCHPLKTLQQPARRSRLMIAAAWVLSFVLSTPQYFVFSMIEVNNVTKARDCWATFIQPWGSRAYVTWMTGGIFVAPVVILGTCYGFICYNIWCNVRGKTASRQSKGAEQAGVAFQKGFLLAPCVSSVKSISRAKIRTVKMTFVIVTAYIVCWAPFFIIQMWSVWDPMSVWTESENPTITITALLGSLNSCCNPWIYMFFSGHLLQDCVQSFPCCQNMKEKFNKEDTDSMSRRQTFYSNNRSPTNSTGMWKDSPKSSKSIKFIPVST

Chain of Tyrosine-protein kinase Fyn (P06241 whole entry): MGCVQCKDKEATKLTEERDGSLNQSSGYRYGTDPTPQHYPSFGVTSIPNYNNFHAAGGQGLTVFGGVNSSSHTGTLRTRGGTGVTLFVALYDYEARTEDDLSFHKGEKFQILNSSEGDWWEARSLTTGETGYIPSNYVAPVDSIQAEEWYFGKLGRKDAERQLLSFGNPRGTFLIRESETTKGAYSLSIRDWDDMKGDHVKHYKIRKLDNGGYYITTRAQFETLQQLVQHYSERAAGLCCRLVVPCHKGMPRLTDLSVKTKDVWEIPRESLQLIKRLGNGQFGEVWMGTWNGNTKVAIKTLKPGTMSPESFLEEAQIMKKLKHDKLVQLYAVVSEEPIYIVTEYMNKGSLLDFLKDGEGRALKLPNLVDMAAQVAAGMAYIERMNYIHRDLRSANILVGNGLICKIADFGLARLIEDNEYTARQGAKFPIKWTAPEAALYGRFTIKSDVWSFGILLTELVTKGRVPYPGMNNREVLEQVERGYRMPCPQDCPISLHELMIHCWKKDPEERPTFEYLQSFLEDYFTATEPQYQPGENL
Chain of 5-hydroxytryptamine receptor 2B (P41595 whole entry): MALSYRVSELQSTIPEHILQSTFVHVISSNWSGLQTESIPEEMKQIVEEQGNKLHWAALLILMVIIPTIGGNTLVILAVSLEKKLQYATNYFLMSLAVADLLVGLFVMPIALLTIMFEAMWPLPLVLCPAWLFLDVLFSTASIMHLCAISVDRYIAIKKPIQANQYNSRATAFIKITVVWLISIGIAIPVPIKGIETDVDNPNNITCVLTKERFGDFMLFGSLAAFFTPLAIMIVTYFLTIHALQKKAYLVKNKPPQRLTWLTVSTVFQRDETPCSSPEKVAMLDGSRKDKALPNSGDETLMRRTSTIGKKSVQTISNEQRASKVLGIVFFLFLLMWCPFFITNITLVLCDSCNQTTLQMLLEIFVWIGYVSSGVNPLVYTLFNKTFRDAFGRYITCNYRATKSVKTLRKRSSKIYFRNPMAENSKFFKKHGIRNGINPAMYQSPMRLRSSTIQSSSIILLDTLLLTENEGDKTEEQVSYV
Chain of Receptor tyrosine-protein kinase erbB-2 (P04626 whole entry): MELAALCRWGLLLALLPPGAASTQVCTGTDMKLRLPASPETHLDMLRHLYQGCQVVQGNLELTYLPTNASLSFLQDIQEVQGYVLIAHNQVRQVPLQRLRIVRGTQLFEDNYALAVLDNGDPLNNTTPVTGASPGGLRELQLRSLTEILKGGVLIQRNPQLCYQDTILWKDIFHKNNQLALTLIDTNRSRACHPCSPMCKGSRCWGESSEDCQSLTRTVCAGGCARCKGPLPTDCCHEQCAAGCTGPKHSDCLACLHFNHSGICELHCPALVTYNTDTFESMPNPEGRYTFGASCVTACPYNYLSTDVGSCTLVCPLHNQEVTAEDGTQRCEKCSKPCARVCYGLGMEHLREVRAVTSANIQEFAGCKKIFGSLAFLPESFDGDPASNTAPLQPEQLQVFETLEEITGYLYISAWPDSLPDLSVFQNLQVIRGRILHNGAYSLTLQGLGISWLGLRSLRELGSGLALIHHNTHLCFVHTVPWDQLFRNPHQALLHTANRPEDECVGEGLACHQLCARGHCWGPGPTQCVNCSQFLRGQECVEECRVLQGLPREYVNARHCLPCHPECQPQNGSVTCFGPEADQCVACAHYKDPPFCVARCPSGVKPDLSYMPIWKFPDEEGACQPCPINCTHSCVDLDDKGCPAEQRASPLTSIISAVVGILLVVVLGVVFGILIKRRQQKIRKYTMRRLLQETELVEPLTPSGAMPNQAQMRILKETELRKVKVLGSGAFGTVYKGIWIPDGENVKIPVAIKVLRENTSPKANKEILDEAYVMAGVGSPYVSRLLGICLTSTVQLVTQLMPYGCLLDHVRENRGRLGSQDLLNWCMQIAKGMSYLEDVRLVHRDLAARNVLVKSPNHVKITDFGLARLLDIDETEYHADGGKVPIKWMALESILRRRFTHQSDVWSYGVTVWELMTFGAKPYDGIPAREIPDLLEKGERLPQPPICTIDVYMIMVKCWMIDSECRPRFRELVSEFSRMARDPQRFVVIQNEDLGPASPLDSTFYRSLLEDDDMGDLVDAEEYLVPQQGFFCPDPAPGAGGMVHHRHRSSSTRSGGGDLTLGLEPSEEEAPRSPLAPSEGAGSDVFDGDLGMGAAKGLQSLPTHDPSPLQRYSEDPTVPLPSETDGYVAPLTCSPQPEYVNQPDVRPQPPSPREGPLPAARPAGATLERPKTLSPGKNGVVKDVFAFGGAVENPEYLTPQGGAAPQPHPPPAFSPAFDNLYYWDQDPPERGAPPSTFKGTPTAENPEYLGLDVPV
Chain of Matrix metalloproteinase-9 (P14780 whole entry): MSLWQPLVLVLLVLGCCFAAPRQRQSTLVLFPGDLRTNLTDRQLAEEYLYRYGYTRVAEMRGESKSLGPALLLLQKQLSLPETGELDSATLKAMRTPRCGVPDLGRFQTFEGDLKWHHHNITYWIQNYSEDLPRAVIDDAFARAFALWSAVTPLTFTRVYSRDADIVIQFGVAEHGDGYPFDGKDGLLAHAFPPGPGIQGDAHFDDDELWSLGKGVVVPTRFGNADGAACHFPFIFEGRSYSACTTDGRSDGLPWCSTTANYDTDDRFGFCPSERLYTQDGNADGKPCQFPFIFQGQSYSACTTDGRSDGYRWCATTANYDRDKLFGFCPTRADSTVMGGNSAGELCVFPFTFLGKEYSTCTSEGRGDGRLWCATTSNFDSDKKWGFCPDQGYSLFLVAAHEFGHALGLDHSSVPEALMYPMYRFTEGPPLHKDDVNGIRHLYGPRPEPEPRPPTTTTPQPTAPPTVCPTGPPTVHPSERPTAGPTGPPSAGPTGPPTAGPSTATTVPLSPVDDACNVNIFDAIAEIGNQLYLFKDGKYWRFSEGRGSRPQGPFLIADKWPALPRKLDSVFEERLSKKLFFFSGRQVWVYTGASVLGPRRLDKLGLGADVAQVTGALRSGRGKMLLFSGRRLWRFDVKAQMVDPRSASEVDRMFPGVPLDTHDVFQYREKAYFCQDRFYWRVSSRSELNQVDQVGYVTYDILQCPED
Chain of Cytochrome P450 2D6 (P10635 whole entry): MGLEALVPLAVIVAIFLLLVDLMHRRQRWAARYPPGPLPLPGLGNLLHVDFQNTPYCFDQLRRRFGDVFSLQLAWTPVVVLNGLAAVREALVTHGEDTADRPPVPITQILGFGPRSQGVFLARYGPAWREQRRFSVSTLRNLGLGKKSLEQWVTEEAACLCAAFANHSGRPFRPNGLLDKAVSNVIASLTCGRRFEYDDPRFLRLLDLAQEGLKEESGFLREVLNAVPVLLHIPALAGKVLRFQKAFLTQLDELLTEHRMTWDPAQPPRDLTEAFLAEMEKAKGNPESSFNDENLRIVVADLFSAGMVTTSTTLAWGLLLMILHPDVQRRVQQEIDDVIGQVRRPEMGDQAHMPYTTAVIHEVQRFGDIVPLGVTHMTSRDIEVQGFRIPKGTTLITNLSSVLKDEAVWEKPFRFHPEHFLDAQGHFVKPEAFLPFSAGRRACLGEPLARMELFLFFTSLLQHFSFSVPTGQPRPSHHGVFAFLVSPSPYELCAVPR
Chain of Cannabinoid receptor 1 (P21554 whole entry): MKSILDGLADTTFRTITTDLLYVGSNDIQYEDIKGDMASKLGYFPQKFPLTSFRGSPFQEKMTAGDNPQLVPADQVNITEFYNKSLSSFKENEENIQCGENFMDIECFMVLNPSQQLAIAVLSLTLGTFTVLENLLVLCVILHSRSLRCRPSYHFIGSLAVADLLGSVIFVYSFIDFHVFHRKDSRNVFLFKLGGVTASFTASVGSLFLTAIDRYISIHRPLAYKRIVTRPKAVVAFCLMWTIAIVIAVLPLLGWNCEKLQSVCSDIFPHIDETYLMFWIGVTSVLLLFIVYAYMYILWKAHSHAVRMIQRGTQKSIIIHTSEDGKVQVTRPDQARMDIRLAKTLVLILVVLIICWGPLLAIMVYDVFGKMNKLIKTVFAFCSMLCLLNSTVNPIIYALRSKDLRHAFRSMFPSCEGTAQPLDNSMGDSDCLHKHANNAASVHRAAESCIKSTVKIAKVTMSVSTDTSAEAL
Chain of D(1A) dopamine receptor (P21728 whole entry): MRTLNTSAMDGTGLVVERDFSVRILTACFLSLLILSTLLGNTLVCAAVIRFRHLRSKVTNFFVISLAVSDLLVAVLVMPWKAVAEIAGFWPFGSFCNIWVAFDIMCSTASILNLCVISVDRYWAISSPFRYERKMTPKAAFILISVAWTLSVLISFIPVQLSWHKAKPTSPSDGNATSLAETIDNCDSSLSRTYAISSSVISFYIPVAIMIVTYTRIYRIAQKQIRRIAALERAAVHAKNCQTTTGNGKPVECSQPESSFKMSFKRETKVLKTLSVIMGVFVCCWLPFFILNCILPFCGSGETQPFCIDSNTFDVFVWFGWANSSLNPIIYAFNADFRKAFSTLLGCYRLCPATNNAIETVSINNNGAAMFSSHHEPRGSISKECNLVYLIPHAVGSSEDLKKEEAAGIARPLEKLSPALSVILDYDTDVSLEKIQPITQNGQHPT

CC(=O)N[C@@H]1[C@H](Oc2c3cc4cc2Oc2ccc(cc2Cl)[C@@H](O[C@@H]2O[C@@H](CO)[C@@H](O)[C@H](O)[C@@H]2NC(C)=O)[C@@H]2NC(=O)[C@H](NC(=O)[C@@H]4NC(=O)[C@H]4NC(=O)[C@@H](Cc5ccc(c(Cl)c5)O3)NC(=O)[C@H](N)c3ccc(O)c(c3)Oc3cc(O)cc4c3)c3ccc(O)c(c3)-c3c(O[C@H]4O[C@H](CO)[C@@H](O)[C@@H](O)[C@@H]4O)cc(O)cc3[C@@H](C(=O)O)NC2=O)O[C@@H](CO)[C@@H](O)[C@@H]1O
Not Active: IC50 [1] | Ki [1] | IC50 [2] | IC50 [3] | IC50 [4] | IC50 [5] | IC50 [6] | Ki [6] | IC50 [7] | IC50 [8] | IC50 [9] | IC50 [10] | IC50 [11]

O=C1CCC(N2C(=O)c3ccccc3C2=O)C(=O)N1 (stereo not drawn) [THALIDOMIDE]
Not Active: IC50 [1] | Ki [1] | IC50 [2] | IC50 [3] | IC50 [4] | IC50 [5] | IC50 [6] | Ki [6] | IC50 [7] | IC50 [8] | IC50 [9] | IC50 [10] | IC50 [11]

CC[C@]1(O)C[C@@H]2CN(CCc3c([nH]c4ccccc34)[C@@](C(=O)OC)(c3cc4c(cc3OC)N(C)[C@H]3[C@@](O)(C(=O)OC)[C@H](OC(C)=O)[C@]5(CC)C=CCN6CC[C@]43[C@@H]65)C2)C1 [VINBLASTINE]
Not Active: IC50 [1] | Ki [1] | IC50 [2] | IC50 [3] | IC50 [4] | IC50 [5] | IC50 [6] | Ki [6] | IC50 [7] | IC50 [8] | IC50 [9] | IC50 [10] | IC50 [11]

CC1=C(CC(=O)O)c2cc(F)ccc2/C1=C\c1ccc([S+](C)[O-])cc1 (stereo not drawn)
Not Active: IC50 [1] | Ki [1] | IC50 [2] | IC50 [3] | IC50 [4] | IC50 [5] | IC50 [6] | Ki [6] | IC50 [7] | IC50 [8] | IC50 [9] | IC50 [10] | IC50 [11]

CC(C)C[C@H](NC(=O)[C@@H](O)[C@H](N)Cc1ccccc1)C(=O)O [UBENIMEX]
Not Active: IC50 [1] | Ki [1] | IC50 [2] | IC50 [3] | IC50 [4] | IC50 [5] | IC50 [6] | Ki [6] | IC50 [7] | IC50 [8] | IC50 [9] | IC50 [10] | IC50 [11]

CC(=O)CC(c1ccccc1)c1c(O)c2ccccc2oc1=O (stereo not drawn) [WARFARIN]
Not Active: IC50 [1] | Ki [1] | IC50 [2] | IC50 [3] | IC50 [4] | IC50 [5] | IC50 [6] | Ki [6] | IC50 [7] | IC50 [8] | IC50 [9] | IC50 [10] | IC50 [11]

COCCCOc1ccnc(C[S+]([O-])c2nc3ccccc3[nH]2)c1C (stereo not drawn) [RABEPRAZOLE]
Not Active: IC50 [1] | Ki [1] | IC50 [2] | IC50 [3] | IC50 [4] | IC50 [5] | IC50 [6] | Ki [6] | IC50 [7] | IC50 [8] | IC50 [9] | IC50 [10] | IC50 [11]

N[C@H](CSC(=S)NCc1ccccc1)C(=O)O
Not Active: IC50 [1] | Ki [1] | IC50 [2] | IC50 [3] | IC50 [4] | IC50 [5] | IC50 [6] | Ki [6] | IC50 [7] | IC50 [8] | IC50 [9] | IC50 [10] | IC50 [11]

[H]/N=C(/N)N[C@H]1[C@H](O)[C@@H](O)[C@H](O[C@@H]2O[C@@H](C)[C@](O)(C=O)[C@H]2O[C@@H]2O[C@@H](CO)[C@H](O)[C@@H](O)[C@@H]2NC)[C@@H](N/C(N)=N\[H])[C@@H]1O [STREPTOMYCIN]
Not Active: IC50 [1] | Ki [1] | IC50 [2] | IC50 [3] | IC50 [4] | IC50 [5] | IC50 [6] | Ki [6] | IC50 [7] | IC50 [8] | IC50 [9] | IC50 [10] | IC50 [11]

CO[C@H]1/C=C/O[C@@]2(C)Oc3c(C)c(O)c4c(c3C2=O)C2=NC3(CCN(CC(C)C)CC3)NC2=C(NC(=O)/C(C)=C\C=C\[C@H](C)[C@H](O)[C@@H](C)[C@@H](O)[C@@H](C)[C@H](OC(C)=O)[C@@H]1C)C4=O [RIFABUTIN]
Not Active: IC50 [1] | Ki [1] | IC50 [2] | IC50 [3] | IC50 [4] | IC50 [5] | IC50 [6] | Ki [6] | IC50 [7] | IC50 [8] | IC50 [9] | IC50 [10] | IC50 [11]

C[C@@H](N)[C@H]1CC[C@H](C(=O)Nc2ccncc2)CC1 [Y-27632]
Not Active: IC50 [1] | Ki [1] | IC50 [2] | IC50 [3] | IC50 [4] | IC50 [5] | IC50 [6] | Ki [6] | IC50 [7] | IC50 [8] | IC50 [9] | IC50 [10] | IC50 [11]
